Experimental data from patent US12077503B2, “Substituted cyclic amides and their use as herbicides” (FMC CORPORATION, priority 2015, dated 2024).

Legend:
Type in all cases: in vivo
[1] = system: giant foxtail (Setaria faberii); test: Test A preemergence; conditions: Setaria faberi, pre-emergence, 240 h, 0 to 100 scale where 0 is no effect and 100 is complete control, read-out: Foxtail, Giant plant response rating
In short: (§1)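 Visual injury, scored on a 0–100 scale relative to untreated controls, was recorded about 10 d after application. Treatments were a preemergence soil spray over planted seeds or a postemergence spray on plants at the one- to two-leaf stage, 2 to 10 cm tall, all in loam soil–sand blend in the greenhouse.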

Kochia (Kochia scoparia) [2] = test: Test A preemergence; conditions: Bassia scoparia, pre-emergence, 240 h, 0 to 100 scale where 0 is no effect and 100 is complete control, read-out: Kochia plant response rating
In short: as §1

[3] = system: ragweed (common ragweed, Ambrosia elatior); test: Test A preemergence; conditions: Ambrosia artemisiifolia, pre-emergence, 240 h, 0 to 100 scale where 0 is no effect and 100 is complete control, read-out: Ragweed plant response rating
In short: as §1

[4] = system: barnyardgrass (Echinochloa crus-galli); test: Test A preemergence; conditions: Echinochloa crus-galli, pre-emergence, 240 h, 0 to 100 scale where 0 is no effect and 100 is complete control, read-out: Barnyardgrass plant response rating
In short: as §1

[5] = system: pigweed (Amaranthus retroflexus); test: Test A preemergence; conditions: Amaranthus retroflexus, pre-emergence, 240 h, 0 to 100 scale where 0 is no effect and 100 is complete control, read-out: Pigweed plant response rating
[6] = system: ryegrass, Italian (Italian ryegrass, Lolium multiflorum); test: Test A preemergence; conditions: Lolium multiflorum, pre-emergence, 240 h, 0 to 100 scale where 0 is no effect and 100 is complete control, read-out: Ryegrass, Italian plant response rating
In short: as §1

[7] = system: giant foxtail (Setaria faberii); test: Test A postemergence; conditions: Setaria faberi, post-emergence, 240 h
In short: as §1

Kochia (Kochia scoparia) [8] = test: Test A postemergence; conditions: Bassia scoparia, post-emergence, 240 h
In short: as §1

[9] = system: ragweed (common ragweed, Ambrosia elatior); test: Test A postemergence; conditions: Ambrosia artemisiifolia, post-emergence, 240 h
In short: as §1

corn (Zea mays) = test: Test A postemergence; conditions: Zea mays, post-emergence, 240 h
In short: as §1

[10] = system: Galium (catchweed bedstraw, Galium aparine); test: Test A postemergence; conditions: Galium, post-emergence, 240 h
In short: as §1

[11] = system: blackgrass (Alopecurus myosuroides); test: Test A postemergence; conditions: Alopecurus myosuroides, post-emergence, 240 h
In short: as §1

[12] = system: barnyardgrass (Echinochloa crus-galli); test: Test A postemergence; conditions: Echinochloa crus-galli, post-emergence, 240 h
In short: as §1

[13] = system: wheat (Triticum aestivum); test: Test A postemergence; conditions: Triticum aestivum, post-emergence, 240 h
In short: as §1

[14] = system: pigweed (Amaranthus retroflexus); test: Test A postemergence; conditions: Amaranthus retroflexus, post-emergence, 240 h
In short: as §1

[15] = system: ryegrass, Italian (Italian ryegrass, Lolium multiflorum); test: Test A postemergence; conditions: Lolium multiflorum, post-emergence, 240 h
In short: as §1

[16] = system: ducksalad (Heteranthera limosa); test: Test B flooded paddy test; conditions: Heteranthera limosa, 250 g ai/ha, Flood; 0 to 100 scale where 0 is no effect and 100 is complete control; read-out: Ducksalad plant response rating
In short: (§2)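 Rating scale 0–100 (visual, vs untreated controls) after a 13–15 d greenhouse period; application to the flood layer, 3 cm above soil and maintained; plants at 2-leaf stage when treated.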

rice (Oryra sativa) = test: Test B flooded paddy test; conditions: Oryza sativa, 250 g ai/ha, Flood; 0 to 100 scale where 0 is no effect and 100 is complete control; read-out: Rice plant response rating
In short: as §2

[17] = system: barnyardgrass (Echinochloa crus-galli); test: Test B flooded paddy test; conditions: Echinochloa crus-galli, 250 g ai/ha, Flood; 0 to 100 scale where 0 is no effect and 100 is complete control; read-out: Barnyardgrass plant response rating
In short: as §2

[18] = system: sedge, umbrella (small-flower umbrella sedge, Cyperus difformis); test: Test B flooded paddy test; conditions: Cyperus difformis, 250 g ai/ha, Flood; 0 to 100 scale where 0 is no effect and 100 is complete control; read-out: Sedge, Umbrella plant response rating
In short: as §2

[19] = 125 g ai/ha, preemergence, approx. 10 d

## CN1C[C@H](c2cccc(C(F)(F)F)c2)[C@@H](C(=O)Nc2ccccc2CCO)C1=O (racemic) [Compound 1162]
[1]; 31 g ai/ha, Preemergence
  pest or weed control at 31 g/ha: 50%
[1]; [19]
  pest or weed control at 125 g/ha: 90%
Kochia (Kochia scoparia) [2]; 31 g ai/ha, Preemergence
  pest or weed control at 31 g/ha: 0%
Kochia (Kochia scoparia) [2]; [19]
  pest or weed control at 125 g/ha: 0%
[3]; 31 g ai/ha, Preemergence
  pest or weed control at 31 g/ha: 0%
[3]; [19]
  pest or weed control at 125 g/ha: 0%
[4]; 31 g ai/ha, Preemergence
  pest or weed control at 31 g/ha: 40%
[4]; [19]
  pest or weed control at 125 g/ha: 90%
[5]; 31 g ai/ha, Preemergence
  pest or weed control at 31 g/ha: 0%
[5]; [19]
  pest or weed control at 125 g/ha: 0%
[6]; 31 g ai/ha, Preemergence
  pest or weed control at 31 g/ha: 0%
[6]; [19]
  pest or weed control at 125 g/ha: 20%
[7]; 125 g ai/ha, postemergence, visual injury vs untreated controls after approx. 10 d, 0 = no effect, 100 = complete control, read-out: Foxtail, Giant plant response rating (0 to 100 scale)
  pest or weed control at 125 g/ha: 40%
[7]; Postemergence, 31 g ai/ha, visual injury after approx. 10 d, 0 to 100 scale, 0 no effect, 100 complete control, read-out: Plant response rating, Foxtail, Giant
  pest or weed control at 31 g/ha: 30%
Kochia (Kochia scoparia) [8]; 125 g ai/ha, postemergence, visual injury vs untreated controls after approx. 10 d, 0 = no effect, 100 = complete control, read-out: Kochia plant response rating (0 to 100 scale)
  pest or weed control at 125 g/ha: 0%
Kochia (Kochia scoparia) [8]; Postemergence, 31 g ai/ha, visual injury after approx. 10 d, 0 to 100 scale, 0 no effect, 100 complete control, read-out: Plant response rating, Kochia
  pest or weed control at 31 g/ha: 0%
[9]; 125 g ai/ha, postemergence, visual injury vs untreated controls after approx. 10 d, 0 = no effect, 100 = complete control, read-out: Ragweed plant response rating (0 to 100 scale)
  pest or weed control at 125 g/ha: 0%
[9]; Postemergence, 31 g ai/ha, visual injury after approx. 10 d, 0 to 100 scale, 0 no effect, 100 complete control, read-out: Plant response rating, Ragweed
  pest or weed control at 31 g/ha: 0%
Corn (Zea mays); 125 g ai/ha, postemergence, visual injury vs untreated controls after approx. 10 d, 0 = no effect, 100 = complete control, read-out: Corn plant response rating (0 to 100 scale)
  plant injury at 125 g/ha: 0%
Corn (Zea mays); Postemergence, 31 g ai/ha, visual injury after approx. 10 d, 0 to 100 scale, 0 no effect, 100 complete control
  Corn plant response rating (crop injury, 0 = no effect, 100 = complete kill) at 31 g/ha: 0%
[10]; 125 g ai/ha, postemergence, visual injury vs untreated controls after approx. 10 d, 0 = no effect, 100 = complete control, read-out: Galium plant response rating (0 to 100 scale)
  pest or weed control at 125 g/ha: 50%
[10]; Postemergence, 31 g ai/ha, visual injury after approx. 10 d, 0 to 100 scale, 0 no effect, 100 complete control, read-out: Plant response rating, Galium
  pest or weed control at 31 g/ha: 0%
[11]; 125 g ai/ha, postemergence, visual injury vs untreated controls after approx. 10 d, 0 = no effect, 100 = complete control, read-out: Blackgrass plant response rating (0 to 100 scale)
  pest or weed control at 125 g/ha: 0%
[11]; Postemergence, 31 g ai/ha, visual injury after approx. 10 d, 0 to 100 scale, 0 no effect, 100 complete control, read-out: Plant response rating, Blackgrass
  pest or weed control at 31 g/ha: 0%
[12]; 125 g ai/ha, postemergence, visual injury vs untreated controls after approx. 10 d, 0 = no effect, 100 = complete control, read-out: Barnyardgrass plant response rating (0 to 100 scale)
  pest or weed control at 125 g/ha: 60%
[12]; Postemergence, 31 g ai/ha, visual injury after approx. 10 d, 0 to 100 scale, 0 no effect, 100 complete control, read-out: Plant response rating, Barnyardgrass
  pest or weed control at 31 g/ha: 30%
[13]; 125 g ai/ha, postemergence, visual injury vs untreated controls after approx. 10 d, 0 = no effect, 100 = complete control, read-out: Wheat plant response rating (0 to 100 scale)
  plant injury at 125 g/ha: 20%
[13]; Postemergence, 31 g ai/ha, visual injury after approx. 10 d, 0 to 100 scale, 0 no effect, 100 complete control, read-out: Plant response rating, Wheat
  plant injury at 31 g/ha: 0%
[14]; 125 g ai/ha, postemergence, visual injury vs untreated controls after approx. 10 d, 0 = no effect, 100 = complete control, read-out: Pigweed plant response rating (0 to 100 scale)
  pest or weed control at 125 g/ha: 0%
[14]; Postemergence, 31 g ai/ha, visual injury after approx. 10 d, 0 to 100 scale, 0 no effect, 100 complete control, read-out: Plant response rating, Pigweed
  pest or weed control at 31 g/ha: 0%
[15]; 125 g ai/ha, postemergence, visual injury vs untreated controls after approx. 10 d, 0 = no effect, 100 = complete control, read-out: Ryegrass, Italian plant response rating (0 to 100 scale)
  pest or weed control at 125 g/ha: 0%
[15]; Postemergence, 31 g ai/ha, visual injury after approx. 10 d, 0 to 100 scale, 0 no effect, 100 complete control, read-out: Plant response rating, Ryegrass, Italian
  pest or weed control at 31 g/ha: 0%
[16]
  pest or weed control at 250 g/ha: 80%
Rice (Oryra sativa)
  pest or weed control at 250 g/ha: 15%
[17]
  pest or weed control at 250 g/ha: 35%
[18]
  pest or weed control at 250 g/ha: 0%
